How the values were obtained:
Assay in all cases: relative viability (nuclei count vs DMSO), 5 days (fraction); higher = more cells survive
Daporinad + Alpelisib = compound: O=C(/C=C/c1cccnc1)NCCCCC1CCN(C(=O)c2ccccc2)CC1 [Daporinad] + Cc1nc(NC(=O)N2CCC[C@H]2C(N)=O)sc1-c1ccnc(C(C)(C)C(F)(F)F)c1 [Alpelisib] (partner 2 µM)
Summary of the method: (§1)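 For relative viability, nuclei counts in treated wells were divided by those in vehicle wells. Lung cancer cell lines had been pin-tool dosed in 1536-well plates the day after seeding and cultured for 5 days, then fixed and stained in one step (final 0.05% Triton X-100, 1% formaldehyde, 1 ug/ml Hoechst) and imaged at 4×. Doses were one drug alone or a fixed anchor-drug dose plus five library-drug doses (not always all listed) in √10 steps, and values are duplicate-plate medians.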

Daporinad + OSI-027 = compound: O=C(/C=C/c1cccnc1)NCCCCC1CCN(C(=O)c2ccccc2)CC1 [Daporinad] + COc1cccc2cc(-c3nc([C@H]4CC[C@H](C(=O)O)CC4)n4ncnc(N)c34)[nH]c12 [OSI-027] (partner 0.5 µM)
Summary of the method: as §1

Daporinad + Linsitinib = compound: O=C(/C=C/c1cccnc1)NCCCCC1CCN(C(=O)c2ccccc2)CC1 [Daporinad] + C[C@]1(O)C[C@@H](c2nc(-c3ccc4ccc(-c5ccccc5)nc4c3)c3c(N)nccn32)C1 [Linsitinib] (partner 1 µM)
Summary of the method: as §1

Daporinad + Vorinostat = compound: O=C(/C=C/c1cccnc1)NCCCCC1CCN(C(=O)c2ccccc2)CC1 [Daporinad] + O=C(CCCCCCC(=O)Nc1ccccc1)NO [Vorinostat] (partner 1 µM)
Summary of the method: as §1

Row | Cell Line | relative viability (Daporinad + Alpelisib; first compound 0.0005 µM) | relative viability (Daporinad + Alpelisib; first compound 0.001581 µM) | relative viability (Daporinad + Alpelisib; first compound 0.005 µM) | relative viability (Daporinad + Alpelisib; first compound 0.01581 µM) | relative viability (Daporinad + OSI-027; first compound 0.0005 µM) | relative viability (Daporinad + OSI-027; first compound 0.001581 µM) | relative viability (Daporinad + OSI-027; first compound 0.005 µM) | relative viability (Daporinad + OSI-027; first compound 0.01581 µM) | relative viability (Daporinad + Linsitinib; first compound 0.0005 µM) | relative viability (Daporinad + Linsitinib; first compound 0.001581 µM) | relative viability (Daporinad + Linsitinib; first compound 0.005 µM) | relative viability (Daporinad + Linsitinib; first compound 0.01581 µM) | relative viability (Daporinad + Vorinostat; first compound 0.0005 µM) | relative viability (Daporinad + Vorinostat; first compound 0.001581 µM) | relative viability (Daporinad + Vorinostat; first compound 0.005 µM) | relative viability (Daporinad + Vorinostat; first compound 0.01581 µM)
1 | SK-MES-1 | 0.841 | 0.894 | 0.947 | 1.03 | 0.532 | 0.608 | 0.734 | 0.601 | 1.1 | 1.13 | 1.17 | 0.905 | 1 | 1.2 | 1.26 | 1.01
2 | NCI-H2405 | 0.918 | 0.939 | 0.928 | 0.466 | 0.698 | 0.645 | 0.724 | 0.626 | 0.987 | 1.06 | 1.04 | 0.611 | 0.851 | 1.06 | 0.874 | 0.31
3 | NCI-H1755 | 0.883 | 0.979 | 0.599 | 0.898 | 0.628 | 0.758 | 0.761 | 0.778 | 1.02 | 0.998 | 0.977 | 0.988 | 0.76 | 0.934 | 0.807 | 0.751
4 | HCC-78 | 0.296 | 0.368 | 0.285 | 0.425 | 0.378 |  | 0.383 | 0.368 | 0.541 | 0.619 | 0.767 | 0.921 | 0.368 | 0.414 | 0.345 | 0.5
5 | LOU-NH91 | 0.719 | 0.795 | 0.851 | 0.997 | 0.732 | 0.779 | 0.772 | 0.83 | 0.854 | 1.04 | 1.14 | 1.52 | 0.929 | 1.01 | 1.1 | 1.02
6 | NCI-H3122 | 0.659 | 0.964 | 0.78 | 0.708 | 0.851 | 1.18 | 0.98 | 0.845 | 1.01 | 1.01 | 1.02 | 1 | 0.938 | 1.14 | 1.03 | 0.898
7 | HCC-827 | 1.04 | 1.03 | 1.06 | 0.969 | 0.78 | 0.865 | 0.881 | 0.74 | 1 | 0.998 | 1.02 | 0.921 | 0.929 | 0.871 | 0.913 | 0.906
8 | SW 1573 | 0.615 | 0.788 | 0.938 | 0.69 | 0.564 | 0.705 | 0.581 | 0.455 | 0.889 | 0.848 | 0.747 | 0.551 | 0.715 | 1.12 | 0.535 | 0.305
9 | NCI-H1975 | 0.69 | 0.602 | 0.755 | 0.678 | 0.753 | 0.738 | 0.8 | 0.672 | 1.14 | 0.99 | 0.92 | 0.812 | 0.748 | 0.728 | 0.813 | 0.689
10 | NCI-H1651 | 1.04 | 0.905 | 0.895 | 0.923 | 0.747 | 0.767 | 0.744 | 0.604 | 0.928 | 0.935 | 0.839 | 0.838 | 0.613 | 0.594 | 0.695 | 0.529
11 | NCI-H460 | 0.54 | 0.64 | 0.502 | 0.566 | 0.754 | 0.762 | 0.73 | 0.697 | 0.759 | 0.928 | 0.818 | 0.777 | 0.743 | 0.719 | 0.687 | 0.643
12 | LCLC-103H | 1.01 | 1.01 | 1.02 | 1.06 | 0.499 | 0.48 | 0.493 | 0.471 | 1.01 | 1.2 | 1.16 | 1.21 | 0.747 | 0.835 | 0.864 | 0.999
13 | LCLC-97TM1 | 0.295 | 0.268 | 0.248 | 0.257 | 0.523 | 0.633 | 0.656 | 0.517 | 0.204 | 0.235 | 0.193 | 0.17 | 0.547 | 0.686 | 0.867 | 1.1
14 | NCI-H838 | 0.973 | 1.03 | 1.06 | 0.512 | 0.415 | 0.465 | 0.475 | 0.555 | 1.17 | 1.14 | 0.832 | 0.558 | 0.763 | 0.814 | 0.49 | 0.418
15 | NCI-H1355 | 0.719 | 0.873 | 1.02 | 0.856 | 0.375 | 0.433 | 0.471 | 0.548 | 0.798 | 1.02 | 0.9 | 0.876 | 0.652 | 0.738 | 0.615 | 0.532
16 | HOP-62 |  | 1.3 | 1.11 | 0.481 | 0.812 | 0.935 | 0.877 | 0.665 |  | 0.893 | 1.15 | 0.789 | 0.341 | 0.724 | 0.618 | 0.414
17 | NCI-H2085 | 0.952 | 1.01 | 1.14 | 1.07 | 0.695 | 0.773 | 0.817 | 0.852 | 0.907 | 0.959 | 0.915 | 0.918 | 0.737 |  | 0.92 | 0.966

From the supplement of paper PMC10307832
